Test results reported in ChEMBL document CHEMBL4837240 (J Med Chem, 2021).
Calls of active or inactive are those of the source. The calls are words filed in the database; no cut-off is given here.

Legend:
[1] = biological target: T1, Vascular endothelial growth factor receptor 2 (Homo sapiens, UniProt P35968); assay: Inhibition of human KDR/VEGFR2
Mus musculus = assay: Decrease in MMP-2 level in BALB/c mouse xenografted with MDA-MB-231 cells in tumor tissue at 25 mg/kg, po by immunohistochemistry analysis; type: functional, organism-based
[2] = biological target: T2, Vascular endothelial growth factor receptor 3 (Homo sapiens, UniProt P35916); assay: Inhibition of VEGFR3 in human MDA-MB-436 cells assessed as inhibition of AKT phosphorylation at 2.5 uM incubated for 24 hrs by Western blot analysis; type: cell-based
T2 sequence (P35916 whole entry): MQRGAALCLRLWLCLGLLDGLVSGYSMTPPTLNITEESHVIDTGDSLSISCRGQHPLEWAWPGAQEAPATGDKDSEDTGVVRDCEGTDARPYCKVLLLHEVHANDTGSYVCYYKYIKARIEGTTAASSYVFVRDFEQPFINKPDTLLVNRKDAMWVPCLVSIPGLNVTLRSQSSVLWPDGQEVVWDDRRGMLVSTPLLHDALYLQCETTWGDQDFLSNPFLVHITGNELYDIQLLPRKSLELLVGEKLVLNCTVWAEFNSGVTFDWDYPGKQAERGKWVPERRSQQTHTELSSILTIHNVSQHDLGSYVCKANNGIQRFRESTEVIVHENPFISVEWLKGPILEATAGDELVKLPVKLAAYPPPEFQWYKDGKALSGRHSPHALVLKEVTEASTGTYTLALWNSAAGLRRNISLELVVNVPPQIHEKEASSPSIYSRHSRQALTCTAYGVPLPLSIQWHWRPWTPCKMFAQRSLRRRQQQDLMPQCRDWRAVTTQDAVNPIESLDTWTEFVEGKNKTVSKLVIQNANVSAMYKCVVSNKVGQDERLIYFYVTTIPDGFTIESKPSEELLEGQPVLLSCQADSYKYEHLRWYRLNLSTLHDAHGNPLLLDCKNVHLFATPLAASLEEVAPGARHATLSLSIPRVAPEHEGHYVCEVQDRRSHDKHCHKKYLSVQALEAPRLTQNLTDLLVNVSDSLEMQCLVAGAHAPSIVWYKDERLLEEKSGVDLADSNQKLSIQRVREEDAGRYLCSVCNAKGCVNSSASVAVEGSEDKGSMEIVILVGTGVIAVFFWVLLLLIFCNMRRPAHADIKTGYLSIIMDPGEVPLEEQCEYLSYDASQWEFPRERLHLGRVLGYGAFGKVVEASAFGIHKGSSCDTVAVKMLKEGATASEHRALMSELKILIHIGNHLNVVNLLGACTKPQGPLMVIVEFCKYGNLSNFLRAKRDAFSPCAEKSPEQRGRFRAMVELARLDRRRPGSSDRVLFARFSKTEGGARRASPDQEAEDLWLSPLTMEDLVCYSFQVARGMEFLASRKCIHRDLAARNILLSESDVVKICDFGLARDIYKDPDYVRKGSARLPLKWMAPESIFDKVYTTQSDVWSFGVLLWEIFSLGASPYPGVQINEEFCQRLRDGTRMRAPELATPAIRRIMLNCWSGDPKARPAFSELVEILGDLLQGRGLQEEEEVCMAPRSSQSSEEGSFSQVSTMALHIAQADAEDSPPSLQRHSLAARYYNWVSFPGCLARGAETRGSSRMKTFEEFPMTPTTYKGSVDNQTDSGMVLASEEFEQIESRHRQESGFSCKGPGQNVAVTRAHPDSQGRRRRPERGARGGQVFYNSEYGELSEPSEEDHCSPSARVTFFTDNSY

[3] = Apparent volume of distribution in Sprague-Dawley rat at 1 mg/kg, iv by LC-MS analysis; type: ADME, organism-based; settings: in vivo, read-out: Vz
MDA-MB-436 [4] = assay: Induction of apoptosis in human MDA-MB-436 cells assessed as apoptotic cells at 2.5 uM incubated for 48 hrs by flow cytometry; type: functional
MDA-MB-231 [5] = assay: Induction of apoptosis in human MDA-MB-231 cells assessed as downregulation of Bcl2 expression up to 10 uM incubated for 24 hrs by Western blotting analysis; type: functional, cell-based; settings: dose microM <=10, time 24.0 hrs
[6] = biological target: T3, Vascular endothelial growth factor receptor 1 (Homo sapiens, UniProt P17948); assay: Inhibition of human FLT1/VEGFR1 assessed as residual kinase activity at 1 uM relative to control
T3 sequence (P17948 whole entry): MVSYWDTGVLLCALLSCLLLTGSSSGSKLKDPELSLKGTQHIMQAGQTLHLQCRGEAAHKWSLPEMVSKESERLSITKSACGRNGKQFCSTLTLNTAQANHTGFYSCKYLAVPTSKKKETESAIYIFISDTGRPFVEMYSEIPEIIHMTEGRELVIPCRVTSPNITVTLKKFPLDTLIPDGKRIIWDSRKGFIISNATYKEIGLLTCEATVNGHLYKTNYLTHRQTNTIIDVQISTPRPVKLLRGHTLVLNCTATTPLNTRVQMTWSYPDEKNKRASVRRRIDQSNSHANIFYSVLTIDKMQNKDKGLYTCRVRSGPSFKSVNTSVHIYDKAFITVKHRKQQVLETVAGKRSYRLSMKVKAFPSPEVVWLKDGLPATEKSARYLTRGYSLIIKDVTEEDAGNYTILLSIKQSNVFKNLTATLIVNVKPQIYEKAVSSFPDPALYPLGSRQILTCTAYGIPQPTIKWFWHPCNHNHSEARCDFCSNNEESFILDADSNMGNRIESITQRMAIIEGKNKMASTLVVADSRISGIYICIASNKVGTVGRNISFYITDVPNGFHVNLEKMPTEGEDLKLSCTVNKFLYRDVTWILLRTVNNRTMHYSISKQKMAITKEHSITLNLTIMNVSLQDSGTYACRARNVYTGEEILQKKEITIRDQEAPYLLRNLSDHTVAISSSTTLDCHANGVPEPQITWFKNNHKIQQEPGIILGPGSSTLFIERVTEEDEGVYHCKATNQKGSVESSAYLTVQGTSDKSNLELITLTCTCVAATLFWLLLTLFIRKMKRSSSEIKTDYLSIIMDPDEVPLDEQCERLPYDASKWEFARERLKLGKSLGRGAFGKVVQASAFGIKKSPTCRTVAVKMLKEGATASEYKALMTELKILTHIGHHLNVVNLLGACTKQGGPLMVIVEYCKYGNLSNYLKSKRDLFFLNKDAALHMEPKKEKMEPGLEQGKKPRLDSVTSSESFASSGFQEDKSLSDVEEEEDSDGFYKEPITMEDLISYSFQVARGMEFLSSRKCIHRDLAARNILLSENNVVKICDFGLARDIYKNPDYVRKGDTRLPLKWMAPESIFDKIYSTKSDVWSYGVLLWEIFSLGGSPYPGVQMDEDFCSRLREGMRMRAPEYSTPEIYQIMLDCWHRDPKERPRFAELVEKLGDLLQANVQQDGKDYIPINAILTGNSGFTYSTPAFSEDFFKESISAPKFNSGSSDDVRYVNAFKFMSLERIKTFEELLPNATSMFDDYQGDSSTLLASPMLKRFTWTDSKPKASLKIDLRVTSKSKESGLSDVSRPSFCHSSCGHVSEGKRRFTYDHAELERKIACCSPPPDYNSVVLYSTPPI

MDA-MB-436 [7] = assay: Inhibition of colony formation in human MDA-MB-436 cells at 2.5 uM incubated for 24 hrs by clonogenic assay; type: functional
[8] = Toxicity in BALB/c mouse xenografted with MDA-MB-231 cells assessed as AST level in blood at 300 mg/kg, po; type: organism-based; settings: in vivo
[9] = biological target: T3, Vascular endothelial growth factor receptor 1; assay: Inhibition of human FLT1/VEGFR1
MDA-MB-231 [10] = assay: Anticancer activity against human MDA-MB-231 cells assessed as cell viability incubated for 48 hrs by MTT assay; settings: MDA-MB-231, 48 h
HDLEC = assay: Upregulation of E-cadherin protein expression in human dermal lymphatic endothelial cells incubated for 24 hrs by Western blot analysis; type: functional
MDA-MB-231 [11] = assay: Induction of apoptosis in human MDA-MB-231 cells assessed as increase in apoptotic cells incubated for 24 hrs by Hoechst 33258 staining under a fluorescence microscopy; type: functional, cell-based
MDA-MB-436 [12] = assay: Induction of apoptosis in human MDA-MB-436 cells assessed as downregulation of Bcl2 expression up to 10 uM incubated for 24 hrs by Western blotting analysis; type: functional, cell-based; settings: dose microM <=10, time 24.0 hrs
MDA-MB-436 [13] = assay: Downregulation of MMP2 protein expression in human MDA-MB-436 cells up to 10 uM incubated for 24 hrs by Western blot analysis; type: functional, cell-based; settings: dose microM <=10, time 24.0 hrs
[14] = biological target: T1, Vascular endothelial growth factor receptor 2; assay: Inhibition of human KDR/VEGFR2 assessed as residual kinase activity at 1 uM relative to control
[15] = Toxicity in po dosed BALB/c mouse xenografted with MDA-MB-231 cells assessed as maximum tolerated dose; type: organism-based; settings: in vivo
[16] = biological target: T2, Vascular endothelial growth factor receptor 3; assay: Inhibition of VEGFR3 in human MDA-MB-231 cells assessed as inhibition of AKT phosphorylation at 2.5 uM incubated for 24 hrs by Western blot analysis; type: cell-based
Misshapen-like kinase 1 [17] = biological target: T4, Misshapen-like kinase 1 (Homo sapiens, UniProt Q8N4C8); assay: Inhibition of human MINK assessed as residual kinase activity at 1 uM relative to control
Misshapen-like kinase 1 [18] = biological target: T4, Misshapen-like kinase 1; assay: Inhibition of human MINK
[19] = biological target: T2, Vascular endothelial growth factor receptor 3; assay: Inhibition of VEGFR3 in human dermal lymphatic endothelial cells assessed as inhibition of AKT phosphorylation incubated for 24 hrs by Western blot analysis; type: tissue-based; settings: HDLEC
[20] = biological target: T5, Vascular endothelial growth factor receptor 1 (Mus musculus) (UniProt P35969); assay: In vivo inhibition of VEGFR1 phosphorylation in BALB/c mouse xenografted with MDA-MB-231 cells at 25 mg/kg, po by immunohistochemistry analysis; type: functional, organism-based
T5 sequence (whole entry): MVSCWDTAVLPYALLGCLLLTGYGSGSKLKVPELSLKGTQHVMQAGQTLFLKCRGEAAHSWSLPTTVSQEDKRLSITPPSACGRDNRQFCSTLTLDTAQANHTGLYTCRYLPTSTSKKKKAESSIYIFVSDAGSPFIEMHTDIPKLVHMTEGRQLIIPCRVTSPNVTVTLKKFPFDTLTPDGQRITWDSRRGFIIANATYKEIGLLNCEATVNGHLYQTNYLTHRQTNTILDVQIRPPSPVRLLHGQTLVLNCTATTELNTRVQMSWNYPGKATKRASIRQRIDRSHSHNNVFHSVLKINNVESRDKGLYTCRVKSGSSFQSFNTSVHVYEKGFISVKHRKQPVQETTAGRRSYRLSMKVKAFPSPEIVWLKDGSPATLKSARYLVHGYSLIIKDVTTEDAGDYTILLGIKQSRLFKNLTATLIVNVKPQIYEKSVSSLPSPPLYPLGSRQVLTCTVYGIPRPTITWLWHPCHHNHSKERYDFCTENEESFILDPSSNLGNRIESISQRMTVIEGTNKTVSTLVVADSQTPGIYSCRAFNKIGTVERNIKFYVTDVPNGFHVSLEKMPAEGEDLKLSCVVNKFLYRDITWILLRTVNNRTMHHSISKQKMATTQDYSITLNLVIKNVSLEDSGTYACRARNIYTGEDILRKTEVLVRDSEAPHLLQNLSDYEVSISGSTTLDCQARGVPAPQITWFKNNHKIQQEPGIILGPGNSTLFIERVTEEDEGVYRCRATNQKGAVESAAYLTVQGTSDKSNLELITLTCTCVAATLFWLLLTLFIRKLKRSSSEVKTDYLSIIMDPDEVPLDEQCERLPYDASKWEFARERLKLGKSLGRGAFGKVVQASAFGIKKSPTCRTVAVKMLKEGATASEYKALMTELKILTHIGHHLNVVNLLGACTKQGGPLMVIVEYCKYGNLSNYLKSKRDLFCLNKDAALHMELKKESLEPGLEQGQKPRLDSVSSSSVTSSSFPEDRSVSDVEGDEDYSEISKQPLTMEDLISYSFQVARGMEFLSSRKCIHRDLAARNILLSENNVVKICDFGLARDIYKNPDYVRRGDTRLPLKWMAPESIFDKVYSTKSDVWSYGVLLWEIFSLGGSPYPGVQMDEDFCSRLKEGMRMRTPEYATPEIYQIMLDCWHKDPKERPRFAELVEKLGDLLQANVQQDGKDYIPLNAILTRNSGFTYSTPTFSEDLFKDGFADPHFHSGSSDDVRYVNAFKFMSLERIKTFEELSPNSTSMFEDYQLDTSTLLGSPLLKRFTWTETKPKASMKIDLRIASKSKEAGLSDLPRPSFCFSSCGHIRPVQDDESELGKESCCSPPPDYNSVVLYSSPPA

[21] = Half life in Sprague-Dawley rat at 1 mg/kg, iv by LC-MS analysis; type: ADME, organism-based; settings: in vivo
[22] = biological target: T2, Vascular endothelial growth factor receptor 3; assay: Inhibition of human FLT4/VEGFR3 assessed as residual kinase activity at 1 uM relative to control
MDA-MB-436 [23] = assay: Induction of apoptosis in human MDA-MB-436 cells assessed as apoptotic cells at 5 uM incubated for 48 hrs by flow cytometry; type: functional

T1 sequence (P35968 whole entry): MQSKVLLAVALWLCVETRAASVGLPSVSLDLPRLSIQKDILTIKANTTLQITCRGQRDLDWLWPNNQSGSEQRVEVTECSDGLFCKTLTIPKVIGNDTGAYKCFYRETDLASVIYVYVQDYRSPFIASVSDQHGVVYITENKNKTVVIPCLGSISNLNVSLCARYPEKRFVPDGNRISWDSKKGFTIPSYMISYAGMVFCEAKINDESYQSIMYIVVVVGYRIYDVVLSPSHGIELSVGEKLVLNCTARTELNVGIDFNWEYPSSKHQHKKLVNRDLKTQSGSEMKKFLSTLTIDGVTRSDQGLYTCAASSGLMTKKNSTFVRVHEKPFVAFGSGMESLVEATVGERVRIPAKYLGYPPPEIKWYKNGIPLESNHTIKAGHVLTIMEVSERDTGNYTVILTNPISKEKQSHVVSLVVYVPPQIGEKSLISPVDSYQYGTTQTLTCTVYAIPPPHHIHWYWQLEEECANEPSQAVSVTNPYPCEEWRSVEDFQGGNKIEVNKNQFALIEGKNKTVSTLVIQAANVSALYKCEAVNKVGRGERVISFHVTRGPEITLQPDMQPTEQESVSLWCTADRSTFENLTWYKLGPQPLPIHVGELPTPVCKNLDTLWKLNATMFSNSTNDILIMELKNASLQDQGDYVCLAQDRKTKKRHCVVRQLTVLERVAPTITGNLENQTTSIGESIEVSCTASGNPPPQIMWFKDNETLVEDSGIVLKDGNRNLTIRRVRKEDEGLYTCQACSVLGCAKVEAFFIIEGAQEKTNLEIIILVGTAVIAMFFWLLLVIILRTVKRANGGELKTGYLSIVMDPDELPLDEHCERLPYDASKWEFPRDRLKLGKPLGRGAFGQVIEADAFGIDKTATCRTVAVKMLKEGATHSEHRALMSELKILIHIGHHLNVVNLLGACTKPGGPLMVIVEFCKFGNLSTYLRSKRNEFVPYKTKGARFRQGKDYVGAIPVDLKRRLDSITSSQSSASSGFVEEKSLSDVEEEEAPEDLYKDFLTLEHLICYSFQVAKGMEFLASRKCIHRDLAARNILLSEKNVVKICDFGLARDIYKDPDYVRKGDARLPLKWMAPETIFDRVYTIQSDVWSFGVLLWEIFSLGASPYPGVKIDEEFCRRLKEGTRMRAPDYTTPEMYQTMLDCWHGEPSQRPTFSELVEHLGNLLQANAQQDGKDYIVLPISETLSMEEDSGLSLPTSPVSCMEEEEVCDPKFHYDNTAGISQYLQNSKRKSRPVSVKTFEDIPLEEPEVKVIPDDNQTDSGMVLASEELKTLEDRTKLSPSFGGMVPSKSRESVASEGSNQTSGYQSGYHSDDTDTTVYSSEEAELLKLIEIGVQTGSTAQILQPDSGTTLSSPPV

CN1CCN(c2ccc(-c3cc4c(N5CCN(C(=O)Nc6ccc(Cl)c(C(F)(F)F)c6)CC5)ncnc4s3)cc2)CC1
IC50 [1]: > 10 µM | Activity (Mus musculus): Active | inhibition [2]: Active | Vd [3]: 5.4 L/kg | Activity (MDA-MB-436 [4]): 30.5% | Activity (MDA-MB-231 [5]): Active | Activity [6]: 97% | inhibition at 2.5 µM (MDA-MB-436 [7]): 100% | Activity [8]: Non-Toxic | IC50 [9]: > 10 µM | IC50 (MDA-MB-231 [10]): 2.22 µM | Activity (HDLEC): Active | Activity (MDA-MB-231 [11]): Dose-Dependent Effect | Activity (MDA-MB-436 [12]): Active | Activity (MDA-MB-436 [13]): Active | Activity [14]: 85% | MTD [15]: 300 mg/kg | inhibition [16]: Active | Activity (Misshapen-like kinase 1 [17]): 5% | IC50 (Misshapen-like kinase 1 [18]): 0.335 µM | inhibition [19]: Dose-Dependent Effect | Activity [20]: inactive | half-life [21]: 13.1 h | Activity [22]: 0% | Activity (MDA-MB-436 [23]): 36.7%
